Patent publication US10597388B2, “Pyridazinone herbicides” (FMC CORPORATION, priority 2014, dated 2020)

What was measured:
Assay type in all cases: in vivo
[1] = test system: waterhemp (common waterhemp, Amaranthus rudis); test: Test C greenhouse herbicide test, pre- and postemergence
Summary of the method: (§1)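 Visual ratings on a 0 to 100 scale (0 = no effect, 100 = complete control) versus untreated controls, scored 13–15 d after treatment. Soil-applied preemergence to seeded loam/sand; foliar postemergence to 1- to 4-leaf plants (2–18 cm) in peat-vermiculite mix; compounds formulated in solvent plus surfactant.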

[2] = test system: lambsquarters (Chenopodium album); test: as above
Summary of the method: as §1

[3] = test system: crabgrass, large (large crabgrass, Digitaria sanguinalis); test: as above
Summary of the method: as §1

[4] = test system: oilseed rape (Brassica napus); test: as above
Summary of the method: as §1

[5] = test system: corn (Zea mays); test: as above
Summary of the method: as §1

[6] = test system: foxtail, giant (giant foxtail, Setaria faberii); test: as above
Summary of the method: as §1

[7] = test system: wheat (winter wheat, Triticum aestivum); test: as above
Summary of the method: as §1

[8] = test system: johnsongrass (Sorghum halepense); test: as above
Summary of the method: as §1

[9] = test system: morningglory (Ipomoea coccinea); test: as above
Summary of the method: as §1

[10] = test system: barnyardgrass (Echinochloa crus-galli); test: Test A greenhouse herbicide test, pre- and postemergence
Summary of the method: (§2)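 Seeds in loam–sand blend received a preemergence directed soil spray; plants at 2–10 cm, one- to two-leaf stage, received postemergence sprays. Compounds in a non-phytotoxic solvent with surfactant. After about 10 d in a greenhouse, injury rated visually versus untreated controls on a 0–100 scale (100 = complete control).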

[11] = test system: kochia (Kochia scoparia); test: as above
Summary of the method: as §2

[12] = Postemergence, 31 g ai/ha, 0 to 100 scale (0 no effect, 100 complete control)
[13] = Postemergence, 125 g ai/ha, scale 0 to 100, 0 is no effect, 100 is complete control
[14] = Postemergence, 250 g ai/ha, scale 0 to 100, 0 no effect, 100 complete control, 13 to 15 d
[15] = Preemergence, 31 g ai/ha, scale 0 to 100, 0 is no effect, 100 is complete control
[16] = Preemergence, 62 g ai/ha, scale 0 to 100, 0 is no effect, 100 is complete control
[17] = Preemergence, 125 g ai/ha, scale 0 to 100, 0 is no effect, 100 is complete control
[18] = Preemergence, 250 g ai/ha, scale 0 to 100, 0 no effect, 100 complete control
[19] = postemergence, 62 g ai/ha, scale 0 to 100, 0 no effect, 100 complete control
[20] = Postemergence, 125 g ai/ha, 0 to 100 scale where 0 is no effect and 100 is complete control
[21] = Postemergence, 500 g ai/ha, 0 to 100 scale, 0 is no effect, 100 is complete control
[22] = Preemergence, 125 g ai/ha, 0 to 100 scale where 0 is no effect and 100 is complete control

SMILES: Cc1ccc2sc(Br)c(-c3c(O)c(C)nn(C)c3=O)c2c1 [Compound 79]
- Waterhemp plant response rating [1, 12]: 85
- Plant response rating, Waterhemp [1, 13]: 80
- Plant response rating, Waterhemp [1, 14]: 95
- Plant response rating, Waterhemp [1, 15]: 100
- Plant response rating, Waterhemp [1, 16]: 100
- Plant response rating, Waterhemp [1, 17]: 100
- Waterhemp plant response rating [1, 18]: 100
- Waterhemp plant response rating [1, 19]: 90
- Lambsquarters plant response rating [2, 12]: 85
- Plant response rating, Lambsquarters [2, 13]: 98
- Plant response rating, Lambsquarters [2, 14]: 100
- Plant response rating, Lambsquarters [2, 15]: 100
- Plant response rating, Lambsquarters [2, 16]: 95
- Plant response rating, Lambsquarters [2, 17]: 100
- Lambsquarters plant response rating [2, 18]: 100
- Lambsquarters plant response rating [2, 19]: 95
- Crabgrass, Large plant response rating [3, 12]: 20
- Plant response rating, Crabgrass, Large [3, 13]: 30
- Plant response rating, Crabgrass, Large [3, 14]: 35
- Plant response rating, Crabgrass, Large [3, 15]: 25
- Plant response rating, Crabgrass, Large [3, 16]: 25
- Plant response rating, Crabgrass, Large [3, 17]: 20
- Crabgrass, Large plant response rating [3, 18]: 30
- Crabgrass, Large plant response rating [3, 19]: 25
- Oilseed Rape plant response rating [4, 12]: 20
- Plant response rating, Oilseed Rape [4, 13]: 70
- Plant response rating, Oilseed Rape [4, 14]: 80
- Plant response rating, Oilseed Rape [4, 15]: 0
- Plant response rating, Oilseed Rape [4, 16]: 35
- Plant response rating, Oilseed Rape [4, 17]: 30
- Oilseed Rape plant response rating [4, 18]: 30
- Oilseed Rape plant response rating [4, 19]: 25
- Corn plant response rating [5, 12]: 0
- Plant response rating, Corn [5, 13]: 25
- Plant response rating, Corn [5, 14]: 35
- Plant response rating, Corn [5, 15]: 0
- Plant response rating, Corn [5, 16]: 0
- Plant response rating, Corn [5, 17]: 5
- Corn plant response rating [5, 18]: 5
- Corn plant response rating [5, 19]: 0
- Foxtail, Giant plant response rating [6, 12]: 35
- Plant response rating, Foxtail, Giant [6, 13]: 75
- Plant response rating, Foxtail, Giant [6, 14]: 90
- Plant response rating, Foxtail, Giant [6, 15]: 65
- Plant response rating, Foxtail, Giant [6, 16]: 85
- Plant response rating, Foxtail, Giant [6, 17]: 85
- Foxtail, Giant plant response rating [6, 18]: 95
- Foxtail, Giant plant response rating [6, 19]: 60
- Wheat plant response rating [7, 12]: 0
- Plant response rating, Wheat [7, 13]: 0
- Plant response rating, Wheat [7, 14]: 0
- Plant response rating, Wheat [7, 15]: 0
- Plant response rating, Wheat [7, 16]: 0
- Plant response rating, Wheat [7, 17]: 0
- Wheat plant response rating [7, 18]: 0
- Wheat plant response rating [7, 19]: 0
- Johnsongrass plant response rating [8, 12]: 5
- Plant response rating, Johnsongrass [8, 13]: 10
- Plant response rating, Johnsongrass [8, 14]: 10
- Plant response rating, Johnsongrass [8, 15]: 10
- Plant response rating, Johnsongrass [8, 16]: 35
- Plant response rating, Johnsongrass [8, 17]: 40
- Johnsongrass plant response rating [8, 18]: 30
- Johnsongrass plant response rating [8, 19]: 5
- Morningglory plant response rating [9, 12]: 100
- Plant response rating, Morningglory [9, 13]: 100
- Plant response rating, Morningglory [9, 14]: 98
- Plant response rating, Morningglory [9, 15]: 90
- Plant response rating, Morningglory [9, 16]: 95
- Plant response rating, Morningglory [9, 17]: 98
- Morningglory plant response rating [9, 18]: 98
- Morningglory plant response rating [9, 19]: 100
- Plant response rating, Barnyardgrass [10, 20]: 50
- Barnyardgrass plant response rating [10, 21]: 80
- Barnyardgrass plant response rating [10, 22]: 50
- Plant response rating, Barnyardgrass ([10]; Preemergence, 500 g ai/ha, 0 to 100 scale, 0 no effect, 100 complete control): 70
- Plant response rating, Kochia [11, 20]: 80
- Kochia plant response rating [11, 21]: 90
- Kochia plant response rating [11, 22]: 70
- Plant response rating, Kochia ([11]; Preemergence, 500 g ai/ha, 0 to 100 scale where 0 is no effect and 100 is complete control): 90
